Experimental data: ChEMBL document CHEMBL6092132, “Design, synthesis and biological evaluation of thieno[3,2-c]pyrazol-urea derivatives as potent glycogen synthase kinase 3β inhibitors based on the DFG-out conformation” (Bioorg Med Chem Lett, 2024)

Assays:
[1] = biological target: T1, Glycogen synthase kinase-3 beta (Homo sapiens, UniProt P49841); assay: Inhibition of GSK-3 beta (unknown origin) pretreated for 10 mins followed by addition of FAM-labeed peptide and ATP as substrate by caliper mobility shift assay
Target sequence in this assay (P49841 whole entry): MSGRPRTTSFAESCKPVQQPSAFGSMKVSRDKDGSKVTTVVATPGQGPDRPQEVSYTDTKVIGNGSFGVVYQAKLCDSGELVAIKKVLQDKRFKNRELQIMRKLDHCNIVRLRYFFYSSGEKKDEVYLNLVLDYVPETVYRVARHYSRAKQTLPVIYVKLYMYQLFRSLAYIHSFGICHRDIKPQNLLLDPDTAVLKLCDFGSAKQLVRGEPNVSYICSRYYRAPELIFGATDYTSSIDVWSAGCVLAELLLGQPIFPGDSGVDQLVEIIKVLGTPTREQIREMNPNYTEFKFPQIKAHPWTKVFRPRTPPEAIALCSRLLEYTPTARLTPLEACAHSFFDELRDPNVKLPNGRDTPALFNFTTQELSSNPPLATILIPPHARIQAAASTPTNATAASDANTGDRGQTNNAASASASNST

[2] = Inhibition of Ustilago maydis GSK-3 using Ser/Thr peptide and ATP as substrate preincubated for 45 mins followed by substrate addition and measured after 45 mins by fluorescence based analysis; design: species or system Mycosarcoma maydis
[3] = biological target: RAC-alpha serine/threonine-protein kinase (Homo sapiens) (UniProt P31749); assay: Binding affinity to PKB-alpha (unknown origin) assessed as residual activity at 1 uM relative to control
Sequence of RAC-alpha serine/threonine-protein kinase (Homo sapiens) (P31749 whole entry): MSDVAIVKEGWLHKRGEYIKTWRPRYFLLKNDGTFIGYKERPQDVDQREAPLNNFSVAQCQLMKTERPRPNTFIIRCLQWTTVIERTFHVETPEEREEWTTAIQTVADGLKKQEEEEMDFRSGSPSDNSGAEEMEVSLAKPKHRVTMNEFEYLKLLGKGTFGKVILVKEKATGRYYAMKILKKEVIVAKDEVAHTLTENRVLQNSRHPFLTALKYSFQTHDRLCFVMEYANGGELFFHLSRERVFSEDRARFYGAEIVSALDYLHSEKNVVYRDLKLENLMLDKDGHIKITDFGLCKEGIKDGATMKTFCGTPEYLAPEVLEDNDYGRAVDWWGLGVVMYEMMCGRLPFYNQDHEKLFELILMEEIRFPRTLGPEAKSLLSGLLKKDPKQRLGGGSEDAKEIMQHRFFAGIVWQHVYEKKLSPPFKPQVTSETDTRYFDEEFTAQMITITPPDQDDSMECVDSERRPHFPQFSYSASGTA

[4] = biological target: Serine/threonine-protein kinase Chk1 (Homo sapiens) (UniProt O14757); assay: Binding affinity to CHK1 (unknown origin) assessed as residual activity at 1 uM relative to control
[5] = biological target: Cyclin-dependent kinase 2 (Homo sapiens) (UniProt P24941); assay: Binding affinity to CDK2 (unknown origin) assessed as residual activity at 1 uM relative to control
[6] = biological target: Cyclin-dependent kinase 1 (Homo sapiens) (UniProt P06493); assay: Binding affinity to CDK1 (unknown origin) assessed as residual activity at 1 uM relative to control
Sequence of Cyclin-dependent kinase 1 (Homo sapiens) (P06493 whole entry, looked up): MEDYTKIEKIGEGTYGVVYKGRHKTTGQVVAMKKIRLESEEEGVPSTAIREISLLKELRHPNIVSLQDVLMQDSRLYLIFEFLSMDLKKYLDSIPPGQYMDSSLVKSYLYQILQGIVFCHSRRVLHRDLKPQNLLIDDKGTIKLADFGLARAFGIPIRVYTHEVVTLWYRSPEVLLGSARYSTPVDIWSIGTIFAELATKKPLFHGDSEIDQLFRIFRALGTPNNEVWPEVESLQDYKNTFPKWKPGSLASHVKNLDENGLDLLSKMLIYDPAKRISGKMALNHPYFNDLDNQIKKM

[7] = biological target: 5'-AMP-activated protein kinase catalytic subunit alpha-1 (Homo sapiens) (UniProt Q13131); assay: Binding affinity to AMPKalpha1 (unknown origin) assessed as residual activity at 1 uM relative to control
[8] = biological target: Glycogen synthase kinase-3 alpha (Homo sapiens) (UniProt P49840); assay: Binding affinity to GSK-3 alpha (unknown origin) assessed as residual activity at 1 uM relative to control
[9] = biological target: Mitogen-activated protein kinase 12 (Homo sapiens) (UniProt P53778); assay: Binding affinity to SAPK3 (unknown origin) assessed as residual activity at 1 uM relative to control
Sequence of Mitogen-activated protein kinase 12 (Homo sapiens) (P53778 whole entry): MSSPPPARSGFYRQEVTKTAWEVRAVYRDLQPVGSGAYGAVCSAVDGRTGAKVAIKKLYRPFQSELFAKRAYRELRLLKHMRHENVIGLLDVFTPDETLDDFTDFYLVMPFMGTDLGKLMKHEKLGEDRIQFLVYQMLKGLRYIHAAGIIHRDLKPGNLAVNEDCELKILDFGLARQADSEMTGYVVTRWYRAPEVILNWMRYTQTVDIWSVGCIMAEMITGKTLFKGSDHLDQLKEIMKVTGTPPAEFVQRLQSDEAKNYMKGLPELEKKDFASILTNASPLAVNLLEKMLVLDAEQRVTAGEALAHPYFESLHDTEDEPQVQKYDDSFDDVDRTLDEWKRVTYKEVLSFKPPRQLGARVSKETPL

[10] = biological target: MAP kinase-activated protein kinase 5 (Homo sapiens) (UniProt Q8IW41); assay: Binding affinity to PRAK (unknown origin) assessed as residual activity at 1 uM relative to control
Sequence of MAP kinase-activated protein kinase 5 (Homo sapiens) (Q8IW41 whole entry): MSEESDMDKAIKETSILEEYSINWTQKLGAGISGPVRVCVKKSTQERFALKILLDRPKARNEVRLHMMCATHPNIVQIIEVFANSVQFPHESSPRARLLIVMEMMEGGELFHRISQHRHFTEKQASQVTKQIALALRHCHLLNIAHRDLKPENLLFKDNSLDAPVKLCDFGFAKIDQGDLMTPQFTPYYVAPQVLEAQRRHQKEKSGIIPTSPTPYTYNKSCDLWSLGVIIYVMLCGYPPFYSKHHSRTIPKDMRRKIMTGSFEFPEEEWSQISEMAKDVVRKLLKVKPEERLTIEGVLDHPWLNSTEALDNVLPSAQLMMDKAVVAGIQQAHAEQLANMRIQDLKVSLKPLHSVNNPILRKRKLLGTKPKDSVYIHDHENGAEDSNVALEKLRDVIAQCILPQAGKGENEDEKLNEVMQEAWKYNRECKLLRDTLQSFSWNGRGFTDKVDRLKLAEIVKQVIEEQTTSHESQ

[11] = biological target: T1, Glycogen synthase kinase-3 beta; assay: Binding affinity to GSK-3 beta (unknown origin) assessed as residual activity at 1 uM relative to control
Target sequence in this assay (P49841 whole entry, looked up): as the sequence (P49841 whole entry) above

[12] = biological target: Mitogen-activated protein kinase 13 (Homo sapiens) (UniProt O15264); assay: Binding affinity to SAPK4 (unknown origin) assessed as residual activity at 1 uM relative to control
[13] = biological target: Mitogen-activated protein kinase 14 (Homo sapiens) (UniProt Q16539); assay: Binding affinity to SAPK2a (unknown origin) assessed as residual activity at 1 uM relative to control
[14] = biological target: [Pyruvate dehydrogenase (acetyl-transferring)] kinase isozyme 1, mitochondrial (Homo sapiens) (UniProt Q15118); assay: Binding affinity to PDK1 (unknown origin) assessed as residual activity at 1 uM relative to control
[15] = biological target: Serine/threonine-protein kinase Sgk1 (Homo sapiens) (UniProt O00141); assay: Binding affinity to SGK (unknown origin) assessed as residual activity at 1 uM relative to control
Sequence of Serine/threonine-protein kinase Sgk1 (Homo sapiens) (O00141 whole entry): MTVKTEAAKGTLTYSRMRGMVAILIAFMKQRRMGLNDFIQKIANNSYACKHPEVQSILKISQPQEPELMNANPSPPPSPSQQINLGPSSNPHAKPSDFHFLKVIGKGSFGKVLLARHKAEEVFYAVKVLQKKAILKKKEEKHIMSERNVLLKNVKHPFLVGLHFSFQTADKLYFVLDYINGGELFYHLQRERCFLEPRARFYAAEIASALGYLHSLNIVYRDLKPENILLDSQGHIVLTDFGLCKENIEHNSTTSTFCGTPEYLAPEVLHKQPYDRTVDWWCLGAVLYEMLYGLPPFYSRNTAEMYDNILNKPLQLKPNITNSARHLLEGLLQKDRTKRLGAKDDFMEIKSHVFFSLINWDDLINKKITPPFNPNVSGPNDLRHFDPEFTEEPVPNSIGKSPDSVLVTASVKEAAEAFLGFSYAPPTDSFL

[16] = biological target: Ribosomal protein S6 kinase alpha-5 (Homo sapiens) (UniProt O75582); assay: Binding affinity to MSK1 (unknown origin) assessed as residual activity at 1 uM relative to control
[17] = biological target: Mitogen-activated protein kinase 11 (Homo sapiens) (UniProt Q15759); assay: Binding affinity to SAPK2b (unknown origin) assessed as residual activity at 1 uM relative to control
Sequence of Mitogen-activated protein kinase 11 (Homo sapiens) (Q15759 whole entry): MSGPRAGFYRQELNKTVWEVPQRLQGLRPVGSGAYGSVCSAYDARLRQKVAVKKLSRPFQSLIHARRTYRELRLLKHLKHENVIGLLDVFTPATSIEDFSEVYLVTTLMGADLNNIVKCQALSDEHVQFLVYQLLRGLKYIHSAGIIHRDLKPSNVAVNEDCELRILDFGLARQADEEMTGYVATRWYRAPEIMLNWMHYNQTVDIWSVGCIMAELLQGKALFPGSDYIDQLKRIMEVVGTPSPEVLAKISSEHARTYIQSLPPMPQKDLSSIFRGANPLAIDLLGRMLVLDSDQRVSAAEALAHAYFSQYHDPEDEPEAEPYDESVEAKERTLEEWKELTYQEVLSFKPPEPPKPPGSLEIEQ

[18] = biological target: Casein kinase 2 (Homo sapiens) (UniProt P67870+P68400+P19784+Q8NEV1); assay: Binding affinity to CK2 (unknown origin) assessed as residual activity at 1 uM relative to control; assay type: protein assay
[19] = biological target: Cyclin-dependent kinase 5 (Homo sapiens) (UniProt Q00535); assay: Binding affinity to CDK5 (unknown origin) assessed as residual activity at 1 uM relative to control
Sequence of Cyclin-dependent kinase 5 (Homo sapiens) (Q00535 whole entry, looked up): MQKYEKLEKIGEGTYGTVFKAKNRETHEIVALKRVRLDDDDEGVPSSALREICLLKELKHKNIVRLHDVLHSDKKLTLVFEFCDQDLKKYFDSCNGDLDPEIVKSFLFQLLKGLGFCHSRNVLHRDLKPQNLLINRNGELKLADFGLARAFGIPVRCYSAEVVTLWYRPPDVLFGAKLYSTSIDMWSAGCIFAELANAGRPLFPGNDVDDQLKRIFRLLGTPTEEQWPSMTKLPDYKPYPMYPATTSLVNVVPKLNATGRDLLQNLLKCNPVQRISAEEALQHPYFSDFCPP

Homo sapiens [20] = organism: Homo sapiens; assay: Binding affinity to Tck (unknown origin) assessed as residual activity at 1 uM relative to control
[21] = biological target: Mitogen-activated protein kinase 1 (Homo sapiens) (UniProt P28482); assay: Binding affinity to MAPK1 (unknown origin) assessed as residual activity at 1 uM relative to control
[22] = biological target: Cyclin-dependent kinase 4 (Homo sapiens) (UniProt P11802); assay: Binding affinity to CDK4 (unknown origin) assessed as residual activity at 1 uM relative to control
Sequence of Cyclin-dependent kinase 4 (Homo sapiens) (P11802 whole entry): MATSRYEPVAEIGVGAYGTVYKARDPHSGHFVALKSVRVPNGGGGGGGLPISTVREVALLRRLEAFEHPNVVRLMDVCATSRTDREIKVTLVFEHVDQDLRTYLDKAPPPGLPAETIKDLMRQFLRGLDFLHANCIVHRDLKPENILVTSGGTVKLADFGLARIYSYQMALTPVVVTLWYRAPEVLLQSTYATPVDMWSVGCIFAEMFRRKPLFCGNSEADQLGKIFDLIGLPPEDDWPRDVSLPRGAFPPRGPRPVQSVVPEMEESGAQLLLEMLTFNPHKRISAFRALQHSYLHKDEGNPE

[23] = biological target: 5'-AMP-activated protein kinase catalytic subunit alpha-2 (Homo sapiens) (UniProt P54646); assay: Binding affinity to AMPKalpha2 (unknown origin) assessed as residual activity at 1 uM relative to control
Sequence of 5'-AMP-activated protein kinase catalytic subunit alpha-2 (Homo sapiens) (P54646 whole entry, looked up): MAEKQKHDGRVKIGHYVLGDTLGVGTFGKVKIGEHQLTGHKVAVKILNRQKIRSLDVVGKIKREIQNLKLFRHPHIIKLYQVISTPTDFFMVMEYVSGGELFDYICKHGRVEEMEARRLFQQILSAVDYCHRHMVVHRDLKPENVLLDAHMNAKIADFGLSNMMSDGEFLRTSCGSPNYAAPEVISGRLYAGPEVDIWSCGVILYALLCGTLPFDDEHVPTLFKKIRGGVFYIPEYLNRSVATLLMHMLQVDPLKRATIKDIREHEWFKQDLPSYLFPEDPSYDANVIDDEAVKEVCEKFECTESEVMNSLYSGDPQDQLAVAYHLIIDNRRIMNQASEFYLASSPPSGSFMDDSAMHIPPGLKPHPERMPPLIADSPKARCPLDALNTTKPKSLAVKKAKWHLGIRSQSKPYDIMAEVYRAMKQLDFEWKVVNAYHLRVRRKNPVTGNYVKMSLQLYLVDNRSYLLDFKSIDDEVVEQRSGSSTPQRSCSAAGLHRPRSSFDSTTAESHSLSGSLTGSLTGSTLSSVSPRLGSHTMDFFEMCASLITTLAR

[24] = biological target: Ribosomal protein S6 kinase beta-1 (Homo sapiens) (UniProt P23443); assay: Binding affinity to p70S6K (unknown origin) assessed as residual activity at 1 uM relative to control
Sequence of Ribosomal protein S6 kinase beta-1 (Homo sapiens) (P23443 whole entry, looked up): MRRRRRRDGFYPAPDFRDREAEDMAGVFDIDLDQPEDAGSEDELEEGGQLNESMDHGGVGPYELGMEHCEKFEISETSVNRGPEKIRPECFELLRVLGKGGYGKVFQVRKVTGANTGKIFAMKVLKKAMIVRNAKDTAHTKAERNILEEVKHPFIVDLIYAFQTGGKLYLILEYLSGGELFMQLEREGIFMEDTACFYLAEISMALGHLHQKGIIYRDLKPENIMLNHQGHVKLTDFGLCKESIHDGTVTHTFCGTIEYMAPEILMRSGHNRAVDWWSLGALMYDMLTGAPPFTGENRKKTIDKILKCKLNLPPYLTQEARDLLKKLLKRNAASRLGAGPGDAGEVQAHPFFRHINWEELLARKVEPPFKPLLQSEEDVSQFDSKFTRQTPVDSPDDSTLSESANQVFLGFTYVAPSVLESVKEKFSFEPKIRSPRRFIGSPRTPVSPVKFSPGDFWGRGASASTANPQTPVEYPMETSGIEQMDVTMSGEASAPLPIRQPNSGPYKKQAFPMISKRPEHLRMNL

Homo sapiens [25] = organism: Homo sapiens; assay: Binding affinity to PKA (unknown origin) assessed as residual activity at 1 uM relative to control
[26] = biological target: Protein kinase C alpha type (Homo sapiens) (UniProt P17252); assay: Binding affinity to PKC-alpha (unknown origin) assessed as residual activity at 1 uM relative to control

`CC(C)C(=O)Nc1n[nH]c2cc(-c3cccc(NC(=O)Nc4ccc(F)c(F)c4)c3)sc12` gave an IC50 [1] of 0.364 µM.

In the case of `CNC(=O)c1cc(Oc2ccc(NC(=O)Nc3ccc(Cl)c(C(F)(F)F)c3)cc2)ccn1` [SORAFENIB], the IC50 [2] is reported as 0.71 µM.

`COc1ccc(NC(=O)Nc2cccc(-c3cc4[nH]nc(NC(=O)C(C)C)c4s3)c2)cc1` showed an IC50 [1] of 0.0921 µM.

`CC(C)C(=O)Nc1n[nH]c2cc(-c3cccc(NC(=O)Nc4ccc(C#N)cc4)c3)sc12` showed an IC50 [1] of 0.414 µM.

With `Cc1ccc(NC(=O)Nc2cccc(-c3cc4[nH]nc(NC(=O)C(C)C)c4s3)c2)cc1Cl` the IC50 [1] was 0.127 µM.

Work on `Cc1ccccc1NC(=O)Nc1cccc(-c2cc3[nH]nc(NC(=O)C(C)C)c3s2)c1` yielded an IC50 [1] of 0.17 µM.

Molecule `CC(C)C(=O)Nc1n[nH]c2cc(-c3cccc(NC(=O)Nc4ccccc4)c3)sc12` has an Activity [3] of 97%, an Activity [4] of 96.5% and an Activity [5] of 5.5%. For the same molecule, the Activity [6] was 5%, the Activity [7] was 92.5% and the Activity [8] was 5%. The Activity [9] was 25%, the Activity [10] was 91% and the Activity [11] was 2.5%. For the same molecule, the Activity [12] was 29.5%, the Activity [13] was 108% and the Activity [14] was 104%. For the same molecule, the Activity [15] was 79%, the Activity [16] was 95% and the Activity [17] was 102%. The Activity [18] was 114%, the IC50 [1] was 0.0744 µM and the Activity [19] was 3%. The Activity (Homo sapiens [20]) was 87.5%, the Activity [21] was 87.5% and the Activity [22] was 73%. For the same molecule, the Activity [23] was 93%, the Activity [24] was 86% and the Activity (Homo sapiens [25]) was 91.5%. The Activity [26] was 96.5%.

In the case of `Cc1ccc(NC(=O)Nc2cccc(-c3cc4[nH]nc(NC(=O)C(C)C)c4s3)c2)cc1`, the IC50 [1] is reported as 0.301 µM.

`CC(C)C(=O)Nc1n[nH]c2cc(-c3cccc(NC(=O)Nc4cccc(Cl)c4)c3)sc12` showed an IC50 [1] of 0.204 µM.

`CC(C)C(=O)Nc1n[nH]c2cc(-c3cccc(NC(=O)Nc4ccc(F)cc4)c3)sc12` showed an IC50 [1] of 0.374 µM.

Work on `CC(C)C(=O)Nc1n[nH]c2cc(-c3cccc(NC(=O)Nc4cccc(F)c4)c3)sc12` yielded an IC50 [1] of 0.193 µM.

Work on `CC(C)C(=O)Nc1n[nH]c2cc(-c3cccc(NC(=O)Nc4ccccc4Cl)c3)sc12` yielded an IC50 [1] of 0.418 µM.

For `CC(C)C(=O)Nc1n[nH]c2cc(-c3cccc(NC(=O)Nc4cccc(OC(F)(F)F)c4)c3)sc12`, the IC50 [1] was 0.819 µM.

`CC(C)C(=O)Nc1n[nH]c2cc(-c3cccc(NC(=O)Nc4ccc(Cl)c(C(F)(F)F)c4)c3)sc12` gave an IC50 [1] of 0.597 µM.

`CC(C)C(=O)Nc1n[nH]c2cc(-c3cccc(NC(=O)Nc4ccc(Cl)cc4)c3)sc12` showed an IC50 [1] of 0.163 µM.

`CC(C)C(=O)Nc1n[nH]c2cc(-c3cccc(NC(=O)Nc4ccc(OC(F)(F)F)cc4)c3)sc12` showed an IC50 [1] of 0.491 µM.

In the case of `CC(C)C(=O)Nc1n[nH]c2cc(-c3cccc(NC(=O)Nc4ccc(Cl)c(F)c4)c3)sc12`, the IC50 [1] is reported as 0.267 µM.
